Assay results taken from patent US20020055495A1, “Two-component anti-emetic composition” (priority 2000, published 2002).
Like-named read-outs stand apart in the source and are kept apart here. Each block holds one compound with its values, some of them ahead of it.

What was measured:
nausea and emesis = conditions: cited from earlier work
[1] = cited from earlier work
male Spargue-Dawley rats = experiment: locomotor depressant effect in rats (center distance traveled, Digiscan activity monitors); type: in vivo, rat; conditions: metaclopramide 4 mg/kg s.c., rats pretreated with saline, 30 minutes recording
Method: In this example, the effect of the addition of a steroid, such as dexamethasone, on metoclopramide's locomotor depressant effects is studied. Forty-eight male Spargue-Dawley rats (250-350 g) are used for this experiment. The rats are housed in pairs and allowed free access to food and water and are not handled except for cage changes and weighing prior to testing. All experimental procedures are performed during the rat's nocturnal cycle, in dimly lit behavior rooms, except that the rats are moved to adjacent behavior rooms 30 minutes prior to testing. Eight rats are tested at a time, four rats from each condition are tested together and groups are randomly chosen to control for order sequence effects. The locomotor experiments are carried out in clear, acrylic 41×41×30 cm test chambers inside Ominitech Digiscan activity monitors (Accuscan, Inc.). Each monitor uses two arrays of infrared photocell beams (8×8 photocells, model RXYZCM-8) to detect several parameters of the rat's movement both horizontally and vertically. Data is collected in 5-min bins during testing. Dexamethasone (Sigma) is dissolved in deionized water at concentrations of 0.16, 0.4, 0.8, and 4 mg/ml. […] Each rat is then immediately placed into a locomotor testing box and the data is recorded for 30 minutes (5-min bins). The data is analyzed with a one way ANOVA for the dependent variable, center distance traveled. […]

dopamine D2 receptor = dopamine D2 receptor (Homo sapiens, UniProt P14416); experiment: dopamine D2 receptor binding, metoclopramide alone and with dexamethasone added
Sequence of dopamine D2 receptor (P14416 whole entry, species assumed): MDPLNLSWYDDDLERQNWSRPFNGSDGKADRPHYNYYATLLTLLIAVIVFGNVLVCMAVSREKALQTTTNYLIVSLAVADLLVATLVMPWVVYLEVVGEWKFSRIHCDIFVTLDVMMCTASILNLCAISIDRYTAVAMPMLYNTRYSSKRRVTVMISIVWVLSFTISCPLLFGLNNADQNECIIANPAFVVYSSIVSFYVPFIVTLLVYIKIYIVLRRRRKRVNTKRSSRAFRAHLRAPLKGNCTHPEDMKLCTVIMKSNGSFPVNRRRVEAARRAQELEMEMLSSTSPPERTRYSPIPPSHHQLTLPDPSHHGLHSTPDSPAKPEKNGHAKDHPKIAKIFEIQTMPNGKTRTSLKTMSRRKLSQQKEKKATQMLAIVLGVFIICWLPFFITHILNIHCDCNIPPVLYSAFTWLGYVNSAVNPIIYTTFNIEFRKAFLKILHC
Method: Metoclopramide is an inhibitor of the dopamine D2 receptor which negatively effects motor function through D2 blockade causing extrapyramidal signs and symptoms (EPS). The effect of the addition of a steroid, such as dexamethasone, on metoclopramide's binding affinity at the dopamine D2 receptor is studied. […] Dexamethasone is then added in relative concentrations based on weight to achieve the following results: […]

Structure (SMILES): Cc1nccn1CC1CCc2c(c3ccccc3n2C)C1=O (stereo not shown) [ondansetron]
anti-emetic efficacy (nausea and emesis; Soukop et al. 1992, repeated chemotherapy for breast cancer): significantly superior than MTC

Structure (SMILES): CN1C2CCCC1CC(NC(=O)c1nn(C)c3ccccc13)C2 (stereo not shown) [oral granisetron, granisetron]
anti-emetic efficacy (nausea and emesis; Heron et al. 1994, Chevallier 1993, cisplatin-induced emesis): superior to MTC

center distance traveled (locomotor depressant effect) (male Spargue-Dawley rats): significantly reduces
% Inhibition D2 Binding (dopamine D2 receptor; MTC 8.6 nM, alone or with DEX (0.7-17.2 nM) added at the stated DEX:MTC weight ratio): 50%
IC50 (dopamine D2 receptor; metoclopramide alone, read-out: IC50 (the concentration that inhibits 50% of dopamine D2 binding)): 8.6 nM
Structure (SMILES): CCN(CC)CCNC(=O)c1cc(Cl)c(N)cc1OC [metoclopramide]
solubility in aqueous solution ([1]; acid addition salt form): freely soluble in aqueous solution
solubility in water ([1]; free base form): quite water insoluble
